Source: patent publication US5721240A, “9-substituted-8-unsubstituted-9-deazaguanines” (BioCryst Pharmaceuticals, Inc., priority 1996, dated 1998)
pIC50: −log10 of the molar value. Like-named read-outs stand apart in the source and are kept apart here.

How the values were obtained:
PNP (Calf spleen) = molecular target: T1, PNP (Calf spleen) (Bos taurus, UniProt P55859); assay: in vitro PNP inhibition assay (radiochemical, [14C]-hypoxanthine formation from [14C]-inosine); type: biochemical
T1 construct: using calf spleen as the enzyme source; from tissue; host or cells: calf spleen
T1 sequence (P55859 1-289): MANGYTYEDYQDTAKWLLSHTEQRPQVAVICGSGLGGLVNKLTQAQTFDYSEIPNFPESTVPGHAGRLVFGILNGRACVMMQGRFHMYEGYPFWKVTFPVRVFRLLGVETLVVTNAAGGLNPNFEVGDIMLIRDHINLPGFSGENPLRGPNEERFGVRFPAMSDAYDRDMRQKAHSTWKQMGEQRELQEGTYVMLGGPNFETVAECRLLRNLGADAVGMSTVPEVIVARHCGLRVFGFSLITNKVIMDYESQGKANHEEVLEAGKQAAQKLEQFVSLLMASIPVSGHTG

CCRF-CEM Cells = assay: 2'-deoxyguanosine potentiation assay (cell growth inhibition of CCRF-CEM cells with d-Guo); type: cell-based; details: Homo sapiens, + 2'-d-Guanosine 5.62 uM, 72 hours
Protocol: The potentiation of the cell growth inhibitory activity (cytotoxicity) of 2'-deoxyguanosine (d-Guo) by the compounds of the invention is determined as follows: CCRF-CEM cells are grown in RPMI-1640 medium. To suspension cultures of these cells, d-Guo at a fixed concentration (5.62 μM) and the candidate PNP inhibitor at varied concentrations are added and the number of cells are determined in a Coulter counter 24, 48, and 72 hours thereafter. […] This method is similar to that previously used to determine the effectiveness of PNP inhibitors on potentiation of the toxicity of d-Guo [D. A. Shewach et al., Cancer Res., 46, 519 (1986); J. C. Sircar et al., Agents and Actions, 21, 253 (1987)].

plasma inosine = assay: Effects on blood plasma levels of inosine in rats; type: in vivo, Lewis rats; details: i.p.; for Inosine Concentration: rat, 4 mg/kg
Protocol: An effective method of evaluating in vivo effects of PNP inhibitors is to evaluate the level of plasma nucleosides following the administration of inhibitor. In particular, it has been shown that certain PNP inhibitors, which increase blood plasma levels of inosine, were subsequently found to prolong skin allograf survival.
Control groups are used which receive only the vehicle. At specific times after administration, the animals are sacrificed and plasma samples are prepared. The plasma is extracted with cold 0.5 N HClO4 and neutralized with solid NH4 HCO3. After removal of perchlorate salts, the extract is subjected to HPLC on a reversed phase column (Spherisorb ODSI).

[1] = 8-unsubstituted compounds, calf spleen enzyme, 50 mM phosphate, read-out: PNP (Calf spleen) IC50
[2] = read-out: PNP (Calf spleen) IC50
[3] = 8-amino-substituted comparison compounds

`Nc1nc2c(Cc3cccc(Cl)c3)c[nH]c2c(=O)[nH]1` [Example 1, 2-amino-3,5-dihydro-7-(3-chlorophenylmethyl)-4H-pyrrolo[3,2d-]pyrimidin-4-one] showed a pIC50 (PNP (Calf spleen)) of 6.85 and a pIC50 (CCRF-CEM Cells; 8-unsubstituted compounds) of 6.10.
`Nc1nc2c(Cc3ccccc3)c[nH]c2c(=O)[nH]1` [Example 2c, 2-Amino-3,5-dihydro-7-(phenylmethyl)-4H-pyrrolo-[3,2-d]pyrimidin-4-one] was tested, and the pIC50 (CCRF-CEM Cells; 8-unsubstituted compounds) was 6.22, the “increase in plasma inosine” value (plasma inosine; Lewis rats, summary in words) was “significant increase in plasma inosine” and the “Inosine Concentration” value (plasma inosine; 0.50 hrs, Exp 1) was 3 μMO. The “Inosine Concentration” value (plasma inosine; 0.50 hrs, Exp 3) was 10 μMO, the “Inosine Concentration” value (plasma inosine; 1.0 hrs, Exp 1) was 7 μMO and the “Inosine Concentration” value (plasma inosine; 1.0 hrs, Exp 3) was 7 μMO. The “Inosine Concentration” value (plasma inosine; 1.5 hrs, Exp 3) was 6 μMO, the “Inosine Concentration” value (plasma inosine; 1.5 hrs, Exp 7, listed as SRI 7109, 4 mg/kg) was 6 μMO and the “Inosine Concentration” value (plasma inosine; 2.0 hrs, Exp 3) was 4 μMO. For the same compound, the “Inosine Concentration” value (plasma inosine; 3.0 hrs, Exp 1) was 4 μMO, the “Inosine Concentration” value (plasma inosine; 3.0 hrs, Exp 3) was 6 μMO and the “Inosine Concentration” value (plasma inosine; 3.0 hrs, Exp 7, listed as SRI 7109, 4 mg/kg) was 6 μMO. For the same compound, the “Inosine Concentration” value (plasma inosine; 4.0 hrs, Exp 2) was 3 μMO, the “Inosine Concentration” value (plasma inosine; 5.0 hrs, Exp 2) was 2 μMO and the “Inosine Concentration” value (plasma inosine; 6.0 hrs, Exp 2) was 0.5 μMO. The “Inosine Concentration” value (plasma inosine; 8.0 hrs, Exp 2) was 0.6 μMO, the “Inosine Concentration” value (plasma inosine; 10.0 hrs, Exp 2) was 0.3 μMO and the “Inosine Concentration” value (plasma inosine; 24 hrs, Exp 1) was 0.3 μMO.
In the case of `Nc1nc2c(Cc3ccc(Cl)cc3)c[nH]c2c(=O)[nH]1` [Example 2d, 2-Amino-3,5-dihydro-7-(4-chlorophenylmethyl)-4H-pyrrolo[3,2-d]pyrimidin-4-one], the pIC50 (CCRF-CEM Cells; 8-unsubstituted compounds) was 6.15.
For `Nc1nc2c(Cc3cccc(C(F)(F)F)c3)c[nH]c2c(=O)[nH]1` [Example 2h, 2-Amino-3,5-dihydro-7-(3-trifluoromethylphenylmethyl)-4H-pyrrolo[3,2-d]pyrimidin-4-one], the pIC50 (PNP (Calf spleen); [1]) was 6.60.
`Nc1nc2c(Cc3ccc(Cl)c(Cl)c3)c[nH]c2c(=O)[nH]1` [Example 2i, 2-Amino-3,5-dihydro-7-(3,4-dichlorophenylmethyl)-4H-pyrrolo[3,2-d]pyrimidin-4-one] was tested, and the pIC50 (PNP (Calf spleen); [1]) was 6.00.
Work on `Nc1nc2c(Cc3ccco3)c[nH]c2c(=O)[nH]1` [Example 2j, 2-Amino-3,5-dihydro-7-(2-furanylmethyl)-4H-pyrrolo-[3,2-d]pyrimidin-4-one] yielded a pIC50 (PNP (Calf spleen); [2]) of 6.51 and a pIC50 (CCRF-CEM Cells; 8-unsubstituted compounds) of 5.64.
Work on `Nc1nc2c(Cc3cccs3)c[nH]c2c(=O)[nH]1` [Example 2k, 2-Amino-3,5-dihydro-7-(2-thienylmethyl)-4H-pyrrolo-[3,2-d]pyrimidin-4-one] yielded a pIC50 (CCRF-CEM Cells; 8-unsubstituted compounds) of 6.52.
For `Nc1nc2c(Cc3ccsc3)c[nH]c2c(=O)[nH]1` [Example 2l, 2-Amino-3,5-dihydro-7-(3-thienylmethyl)-4H-pyrrolo-[3,2-d]pyrimidin-4-one], the pIC50 (PNP (Calf spleen); [2]) was 7.10 and the pIC50 (CCRF-CEM Cells; 8-unsubstituted compounds) was 5.70.
`Nc1nc(O)c2[nH]cc(Cc3ccccc3Cl)c2n1` [Example 2m, 2-Amino-3,5-dihydro-7-(2-chlorophenylmethyl)-4H-pyrrolo[3,2-d]pyrimidin-4-one] showed a pIC50 (PNP (Calf spleen); [1]) of 5.64.
Work on `Nc1nc2c(Cc3ccsc3)c(N)[nH]c2c(=O)[nH]1` [Example 3-Thienyl, reference compound] yielded a pIC50 (CCRF-CEM Cells; [3]) of less than 4.70.
Compound `Nc1nc2c(Cc3cccc(O)c3)c[nH]c2c(=O)[nH]1` [Example 3b, 2-amino-3,5-dihydro-7-(3-hydroxyphenylmethyl)-4H-pyrrolo[3,2-d]pyrimidin-4-one] has a pIC50 (CCRF-CEM Cells; 8-unsubstituted compounds) of 5.77.
Compound `Nc1nc2c(Cc3ccccc3O)c[nH]c2c(=O)[nH]1` [Example 3c, 2-amino-3,5-dihydro-7-(2-hydroxyphenylmethyl)-4H-pyrrolo[3,2-d]pyrimidin-4-one] has a pIC50 (PNP (Calf spleen); [1]) of 5.71.
`Nc1nc2c(Cc3ccccc3)c(N)[nH]c2c(=O)[nH]1` [Phenyl, reference compound] was tested, and the pIC50 (PNP (Calf spleen)) was 5.11 and the pIC50 (CCRF-CEM Cells; [3]) was less than 4.82.
